Like-named read-outs stand apart in the source and are kept apart here.
Legend:
[1] = biological target: Beta Secretase enzyme (BACE1) (Homo sapiens, UniProt P56817); experiment: In vitro enzymatic BACE FRET assay; type: biochemical; details: read-out: BACE1 FRET assay IC50
Method in brief: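 Readout: dequenched fluorescence (ex 488 nm/[…]) after neutralizing with Tris buffer. Reactions, begun by adding 50 nM quenched peptide substrate spanning the BACE cleavage site, were incubated one hour at pH 4.2 in 0.05 M acetate with 100 uM genapol and 10% final DMSO.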

[2] = test system: Aβ40 in conditioned medium of cells stably expressing Amyloid Precursor Protein (APP); experiment: In vitro BACE cell-based assay (HEK cell assay), Aβ40 sandwich ELISA; details: Homo sapiens, HEK293
Method in brief: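 Aβ40 in conditioned medium was quantified by time-resolved fluorescence sandwich ELISA (pAb40 capture 3 h at 4 °C, biotin-6E10 detection 2 h at 4 °C) after 24 h compound exposure of APP-expressing cells. Doses spanned 10 points from 100 μM or 10 μM top, 0.1% DMSO; IC50 was derived from percent of control.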

Cathepsin D (Cat D) = biological target: T1, Cathepsin D (Cat D) (Homo sapiens, UniProt P07339); experiment: In vitro enzymatic Cathepsin D (Cat D) FRET assay; type: biochemical; details: read-out: CatD IC50
T1 construct: Recombinant Cat D was expressed in CHO cells; made in house; host or cells: CHO cells
T1 sequence (P07339 65-412, species assumed): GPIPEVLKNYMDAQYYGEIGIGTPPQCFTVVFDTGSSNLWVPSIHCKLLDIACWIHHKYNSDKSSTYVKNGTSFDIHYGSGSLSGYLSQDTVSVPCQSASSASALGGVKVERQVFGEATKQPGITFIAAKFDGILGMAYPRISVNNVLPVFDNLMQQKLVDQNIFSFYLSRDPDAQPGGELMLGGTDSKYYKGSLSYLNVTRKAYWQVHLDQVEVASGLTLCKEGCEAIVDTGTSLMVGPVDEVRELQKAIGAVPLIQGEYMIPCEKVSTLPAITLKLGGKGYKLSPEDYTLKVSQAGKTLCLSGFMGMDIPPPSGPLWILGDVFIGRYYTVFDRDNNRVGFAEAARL
Method in brief: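 FRET read-out: a fluorophore/quencher-labelled peptide substrate is cleaved by 9 nM Cat D (recombinant, CHO-expressed) following a one-hour preincubation with inhibitor dilutions in DMSO. Tris buffer added to neutralize pH ends the reaction before fluorescence measurement.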

Sequence of Beta Secretase enzyme (BACE1) (P56817 46-501): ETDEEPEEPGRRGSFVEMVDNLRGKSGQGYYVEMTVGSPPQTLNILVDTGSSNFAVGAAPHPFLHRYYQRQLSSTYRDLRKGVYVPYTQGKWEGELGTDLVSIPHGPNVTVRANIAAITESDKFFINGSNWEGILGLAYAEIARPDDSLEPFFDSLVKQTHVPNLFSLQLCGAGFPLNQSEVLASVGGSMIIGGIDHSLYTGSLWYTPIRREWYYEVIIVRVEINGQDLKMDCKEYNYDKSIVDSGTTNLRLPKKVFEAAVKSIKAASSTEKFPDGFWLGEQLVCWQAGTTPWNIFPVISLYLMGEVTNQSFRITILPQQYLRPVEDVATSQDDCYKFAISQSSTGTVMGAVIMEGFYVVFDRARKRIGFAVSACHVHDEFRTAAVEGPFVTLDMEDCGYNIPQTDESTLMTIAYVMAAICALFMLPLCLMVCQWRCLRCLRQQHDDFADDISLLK

| SMILES | IC50 ([1]; average IC50, enzyme assay) [nM] | IC50 (Cathepsin D (Cat D)) [nM] | IC50 ([1]; average IC50) [nM] | IC50 ([2]; average IC50, HEK cells) [nM] | IC50 ([2]; average IC50, HEK cell assay) [nM] | IC50 [1] [nM] | IC50 [2] [nM] | IC50 ([2]; average IC50, cell assay) [nM] |
| --- | --- | --- | --- | --- | --- | --- | --- | --- |
| CC1(C)C(N)=N[C@](C)(c2cc(Nc3ncc(Br)c4cc(Cl)cnc34)ccc2F)CS1(=O)=O [Example 188, (R)-5-amino-3-(5-((5-bromo-3-chloro-1,7-naphthyridin-8-yl)amino)-2-fluorophenyl)-3,6,6-trimethyl-3,6-dihydro-2H-1,4-thiazine 1,1-dioxide] | 0.83 | 213000 | – | – | – | – | – | 59.7 |
| CC1(C)C(N)=N[C@](C)(c2cc(Nc3ncc(C#C[Si](C)(C)C)c4cc(Cl)cnc34)ccc2F)CS1(=O)=O [Example 189, (R)-5-amino-3-(5-((3-chloro-5-((trimethylsilyl)ethynyl)-1,7-naphthyridin-8-yl)amino)-2-fluorophenyl)-3,6,6-trimethyl-3,6-dihydro-2H-1,4-thiazine 1,1-dioxide] | 6.8 | > 4940 | – | – | – | – | – | 231 |
| C#Cc1cnc(Nc2ccc(F)c([C@]3(C)CS(=O)(=O)C(C)(C)C(N)=N3)c2)c2ncc(Cl)cc12 [Example 190, (R)-5-amino-3-(5-((3-chloro-5-ethynyl-1,7-naphthyridin-8-yl)amino)-2-fluorophenyl)-3,6,6-trimethyl-3,6-dihydro-2H-1,4-thiazine 1,1-dioxide] | 1.3 | 63900 | – | – | – | – | – | 44.8 |
| CC1(C)C(N)=N[C@](C)(c2cc(Nc3ncc(Cl)c4cc(Cl)cnc34)ccc2F)CS1(=O)=O [Example 192, (R)-5-amino-3-(5-((3,5-dichloro-1,7-naphthyridin-8-yl)amino)-2-fluorophenyl)-3,6,6-trimethyl-3,6-dihydro-2H-1,4-thiazine 1,1-dioxide] | 0.7 | 32400 | – | – | – | – | – | 36.6 |
| CC1(C)C(N)=N[C@](CF)(c2cc(NC(=O)c3ccc(Cl)cn3)ccc2F)CS1(=O)=O [Example 193, (S)—N-(3-(5-amino-3-(fluoromethyl)-6,6-dimethyl-1,1-dioxido-3,6-dihydro-2H-1,4-thiazin-3-yl)-4-fluorophenyl)-5-chloropicolinamide] | – | 228000 | 0.76 | 16.1 | – | – | – | – |
| C=C(C)c1cc(Cl)cnc1C(=O)Nc1ccc(F)c([C@]2(C)CS(=O)(=O)C(C)(C)C(N)=N2)c1 [Example 194, (R)—N-(3-(5-amino-3,6,6-trimethyl-1,1-dioxido-3,6-dihydro-2H-1,4-thiazin-3-yl)-4-fluorophenyl)-5-chloro-3-(prop-1-en-2-yl)picolinamide] | 5.18 | 617000 | – | – | 3.42 | – | – | – |
| CC(C)c1cc(Cl)cnc1C(=O)Nc1ccc(F)c([C@]2(CF)CS(=O)(=O)C(C)(C)C(N)=N2)c1 [Example 198, (S)—N-(3-(5-amino-3-(fluoromethyl)-6,6-dimethyl-1,1-dioxido-3,6-dihydro-2H-1,4-thiazin-3-yl)-4-fluorophenyl)-5-chloro-3-isopropylpicolinamide 2,2,2-trifluoroacetate] | 7.99 | 850000 | – | – | 91.4 | – | – | – |
| C[C@@]1(c2cc(NC(=O)c3ccc(Cl)cn3)ccc2F)CS(=O)(=O)C2(CC2)C(N)=N1 [Example 199, N-(3-((6R)-8-amino-6-methyl-4,4-dioxido-4-thia-7-azaspiro[2.5]oct-7-en-6-yl)-4-fluorophenyl)-5-chloro-2-pyridinecarboxamide] | – | 81000 | 1.9 | 1.1 | – | – | – | – |
| C[C@]1(c2cc(NC(=O)c3ccc(Cl)cn3)ccc2F)N=C(N)C2(CC2)S(=O)(=O)[C@@H]1F [Example 200, N-(3-((5S,6R)-8-amino-5-fluoro-6-methyl-4,4-dioxido-4-thia-7-azaspiro[2.5]oct-7-en-6-yl)-4-fluorophenyl)-5-chloro-2-pyridinecarboxamide] | – | 55600 | 1.3 | 3.9 | – | – | – | – |
| Cc1cc(OC(F)F)cnc1C(=O)Nc1ccc(F)c([C@@]2(C)N=C(N)C3(CC3)S(=O)(=O)[C@H]2F)c1 [Example 203, N-(3-((5R,6R)-8-amino-5-fluoro-6-methyl-4,4-dioxido-4-thia-7-azaspiro[2.5]oct-7-en-6-yl)-4-fluorophenyl)-5-(difluoromethoxy)-3-methyl-2-pyridinecarboxamide] | – | 30200 | 0.48 | 2.3 | – | – | – | – |
| COc1cnc2c(Nc3ccc(F)c([C@@]4(C)N=C(N)C5(CC5)S(=O)(=O)[C@H]4F)c3)nccc2n1 [Example 208, N-(3-((5R,6R)-8-amino-5-fluoro-6-methyl-4,4-dioxido-4-thia-7-azaspiro[2.5]oct-7-en-6-yl)-4-fluorophenyl)-2-methoxypyrido[3,4-b]pyrazin-5-amine] | – | 696000 | < 2 | 10.7 | – | – | – | – |
| COc1cnc2c(Nc3ccc(F)c([C@@]4(C)N=C(N)C5(CC5)S(=O)(=O)[C@@H]4F)c3)nccc2n1 [Example 209, N-(3-((5S,6R)-8-amino-5-fluoro-6-methyl-4,4-dioxido-4-thia-7-azaspiro[2.5]oct-7-en-6-yl)-4-fluorophenyl)-2-methoxypyrido[3,4-b]pyrazin-5-amine] | – | 157000 | 8.5 | 85.4 | – | – | – | – |

Further lines, with some results ahead:

| IC50 ([1]; average IC50, enzyme assay) [nM] | IC50 (Cathepsin D (Cat D)) [nM] | IC50 ([1]; average IC50) [nM] | IC50 ([2]; average IC50, HEK cells) [nM] | IC50 ([2]; average IC50, HEK cell assay) [nM] | IC50 [1] [nM] | IC50 [2] [nM] | SMILES | IC50 ([2]; average IC50, cell assay) [nM] |
| --- | --- | --- | --- | --- | --- | --- | --- | --- |
| 4.47 | 65000 | – | – | – | – | – | CC1(C)C(N)=N[C@](C)(c2cc(Nc3ncc(CO)c4cc(Cl)cnc34)ccc2F)CS1(=O)=O [Example 191, (R)-5-amino-3-(5-((3-chloro-5-(hydroxymethyl)-1,7-naphthyridin-8-yl)-amino)-2-fluorophenyl)-3,6,6-trimethyl-3,6-dihydro-2H-1,4-thiazine 1,1-dioxide] | 8.9 |
| 0.59 | 108000 | – | – | 3.9 | – | – | C=Cc1cc(Cl)cnc1C(=O)Nc1ccc(F)c([C@]2(C)CS(=O)(=O)C(C)(C)C(N)=N2)c1 [Example 195, (R)—N-(3-(5-amino-3,6,6-trimethyl-1,1-dioxido-3,6-dihydro-2H-1,4-thiazin-3-yl)-4-fluorophenyl)-5-chloro-3-vinylpicolinamide] | – |
| 1.81 | 200000 | – | – | 5.4 | – | – | CCc1cc(Cl)cnc1C(=O)Nc1ccc(F)c([C@]2(C)CS(=O)(=O)C(C)(C)C(N)=N2)c1 [Example 196, (R)—N-(3-(5-amino-3,6,6-trimethyl-1,1-dioxido-3,6-dihydro-2H-1,4-thiazin-3-yl)-4-fluorophenyl)-5-chloro-3-ethylpicolinamide] | – |
| 1.46 | 416000 | – | – | 208 | – | – | CCc1cc(Cl)cnc1C(=O)Nc1ccc(F)c([C@]2(CF)CS(=O)(=O)C(C)(C)C(N)=N2)c1 [Example 197, (S)—N-(3-(5-amino-3-(fluoromethyl)-6,6-dimethyl-1,1-dioxido-3,6-dihydro-2H-1,4-thiazin-3-yl)-4-fluorophenyl)-5-chloro-3-ethylpicolinamide] | – |
| – | 31100 | 0.62 | 2 | – | – | – | C[C@]1(c2cc(NC(=O)c3ccc(Cl)cn3)ccc2F)N=C(N)C2(CC2)S(=O)(=O)[C@H]1F [Example 201, N-(3-((5R,6R)-8-amino-5-fluoro-6-methyl-4,4-dioxido-4-thia-7-azaspiro[2.5]oct-7-en-6-yl)-4-fluorophenyl)-5-chloro-2-pyridinecarboxamide] | – |
| – | 96700 | 1.5 | 3.6 | – | – | – | Cc1cc(OC(F)F)cnc1C(=O)Nc1ccc(F)c([C@@]2(C)N=C(N)C3(CC3)S(=O)(=O)[C@@H]2F)c1 [Example 202, N-(3-((5S,6R)-8-amino-5-fluoro-6-methyl-4,4-dioxido-4-thia-7-azaspiro[2.5]oct-7-en-6-yl)-4-fluorophenyl)-5-(difluoromethoxy)-3-methyl-2-pyridinecarboxamide] | – |
| – | 182000 | – | – | – | 0.87 | 2.7 | Cc1cc(Cl)cnc1C(=O)Nc1ccc(F)c([C@@]2(C)N=C(N)C3(CC3)S(=O)(=O)[C@@H]2F)c1 [Example 204, N-(3-((5S,6R)-8-amino-5-fluoro-6-methyl-4,4-dioxido-4-thia-7-azaspiro[2.5]oct-7-en-6-yl)-4-fluorophenyl)-5-chloro-3-methylpicolinamide] | – |
| – | 28000 | – | – | – | 0.44 | 2.6 | Cc1cc(Cl)cnc1C(=O)Nc1ccc(F)c([C@@]2(C)N=C(N)C3(CC3)S(=O)(=O)[C@H]2F)c1 [Example 205, N-(3-((5R,6R)-8-amino-5-fluoro-6-methyl-4,4-dioxido-4-thia-7-azaspiro[2.5]oct-7-en-6-yl)-4-fluorophenyl)-5-chloro-3-methylpicolinamide] | – |
| – | 193000 | 1.9 | 5.4 | – | – | – | Cc1cc(C(F)F)cnc1C(=O)Nc1ccc(F)c([C@@]2(C)N=C(N)C3(CC3)S(=O)(=O)[C@@H]2F)c1 [Example 206, N-(3-((5S,6R)-8-amino-5-fluoro-6-methyl-4,4-dioxido-4-thia-7-azaspiro[2.5]oct-7-en-6-yl)-4-fluorophenyl)-5-(difluoromethyl)-3-methyl-2-pyridinecarboxamide] | – |
| – | 56100 | 0.92 | 6.7 | – | – | – | Cc1cc(C(F)F)cnc1C(=O)Nc1ccc(F)c([C@@]2(C)N=C(N)C3(CC3)S(=O)(=O)[C@H]2F)c1 [Example 207, N-(3-((5R,6R)-8-amino-5-fluoro-6-methyl-4,4-dioxido-4-thia-7-azaspiro[2.5]oct-7-en-6-yl)-4-fluorophenyl)-5-(difluoromethyl)-3-methyl-2-pyridinecarboxamide] | – |
